Source: US9828338B2, “Carbamate derivatives of lactam based N-acylethanolamine acid amidase (NAAA) inhibitors” (The Regents of the University of California, priority 2013, dated 2017)
Like-named read-outs stand apart in the source and are kept apart here.

Columns and labels:
Assay type in all cases: biochemical
[1] = biological target: T1, r-NAAA (Rattus norvegicus, UniProt Q5KTC7); experiment: UPLC/MS r-NAAA assay
T1 construct: Lysosomal NAAA protein preparation was obtained by homogenizing male Sprague-Dawley rat lungs; tissue Charles River (animals); host or cells: male Sprague-Dawley rat lung, soluble lysosomal fraction
T1 sequence (Q5KTC7 34-362): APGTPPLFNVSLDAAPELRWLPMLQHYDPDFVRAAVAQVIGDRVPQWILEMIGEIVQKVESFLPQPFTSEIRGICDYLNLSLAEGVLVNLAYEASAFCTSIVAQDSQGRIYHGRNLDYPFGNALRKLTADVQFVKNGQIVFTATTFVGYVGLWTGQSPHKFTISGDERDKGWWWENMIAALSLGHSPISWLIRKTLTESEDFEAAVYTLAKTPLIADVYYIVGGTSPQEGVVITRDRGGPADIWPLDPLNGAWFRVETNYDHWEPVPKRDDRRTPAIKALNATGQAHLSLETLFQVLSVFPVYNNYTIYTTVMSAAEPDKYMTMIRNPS
Experimental: Lysosomal NAAA protein preparation was obtained by homogenizing male Sprague-Dawley rat lungs (Charles River) in 20 mM Tris-HCl buffer pH 7.4 containing 0.32M sucrose. […] Supernatants were then centrifuged at 12,000 xg for 30 min at 4° C. Pellets were then resuspended in PBS pH 7.4 and subjected to a freeze/thaw cycle at −80° C. The suspension was finally centrifuged at 105,000×g for 1 h at 4° C. The supernatant was then used in the enzymatic assay.
NAAA protein preparation was pre-incubated with various concentrations of test compounds or vehicle control in 100 mM NaH2PO4/Citrate buffer, 1% Triton-X, 3 mM DTT (pH 4.5) for 30 min at 37° C. Samples were then incubated with heptadecenoylethanolamide (50 μM, Avanti Polar Lipids) at 37° C. for 30 min. The reaction was terminated by addition of cold methanol containing heptadecanoic acid (NuCheck Prep) as internal standard. Samples were then analyzed by UPLC/MS (Acquity, Waters). […] The column temperature was 40° C. Electrospray ionization was in the negative mode, capillary voltage was 0.5 kV, cone voltage was […], desolvation temperature was 500° C. N2 was used as drying gas at a flow rate of 1000 L/hour and a temperature of 500° C. […] Calibration curves were generated using commercial heptadecenoic acid (NuCheck Prep) Inhibition of NAAA activity was calculated as reduction of heptadecenoic acid in the samples compared to vehicle controls. IC50 values were calculated by non-linear regression analysis of log [concentration]/inhibition curves using GraphPad Prism 5 (GraphPad Software Inc., CA—USA) applying a standard slope curve fitting.

[2] = biological target: T2, human NAAA (Homo sapiens, UniProt Q02083); experiment: Fluorogenic h-NAAA assay
T2 construct: made in house; host or cells: HEK293 cells, stably transfected; soluble lysosomal fraction used as enzyme source
T2 sequence (Q02083 29-359): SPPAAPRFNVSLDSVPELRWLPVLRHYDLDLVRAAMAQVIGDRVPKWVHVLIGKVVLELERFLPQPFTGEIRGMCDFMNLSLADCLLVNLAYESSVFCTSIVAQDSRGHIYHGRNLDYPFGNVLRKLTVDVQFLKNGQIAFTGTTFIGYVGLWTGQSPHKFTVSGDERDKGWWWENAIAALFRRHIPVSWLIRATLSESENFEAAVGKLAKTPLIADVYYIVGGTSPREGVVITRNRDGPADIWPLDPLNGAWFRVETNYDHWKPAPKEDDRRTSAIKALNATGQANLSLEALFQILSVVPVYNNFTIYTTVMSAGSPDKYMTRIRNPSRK
Experimental: Hek293 cells stably transfected with the human NAAA coding sequence cloned from a human spleen cDNA library were used as enzyme source. Recombinant HEK-hNAAA pellets were resuspended in homogenizing buffer, and sonicated. Samples were centrifuged at 800×g for 15 min at 4° C. and the resultant supernatants were then ultracentrifuged at 12,000×g for 30 min at 4° C. The pellets were resuspended in PBS pH 7.4 on ice and subjected to a freeze/thaw cycle at −80° C. The suspension was finally centrifuged at 105,000×g for 1 h at 4° C. Protein concentration was measured and samples aliquoted and stored at −80° C. until use.
The assay was run in Optiplate 96-wells black plates, in a total reaction volume of 200 μL. NAAA protein preparation (4.0 μg) was pre-incubated for 10 min with various concentrations of test compounds or vehicle control (5% DMSO) in 100 mM citrate/phosphate buffer (pH 4.5) containing 3.0 mM DTT, 0.1% Triton X-100, 0.05% BSA, 150 mM NaCl. N-(4-methyl-2-oxo-chromen-7-yl)-hexadecanamide was used as a substrate (5.0 μM) and the reaction carried over for 30 min at 37° C. The samples were then read in a Perkin Elmer Envision plate reader using an excitation wavelength of 360 nm and emission 460 nm. IC50 values were calculated by non-linear regression analysis of log [concentration]/inhibition curves using GraphPad Prism 5 (GraphPad Software Inc., CA—USA) applying a standard slope curve fitting.

[3] = biological target: T3, Rat AC (r-AC) (Rattus norvegicus, UniProt Q6P7S1); experiment: Rat AC (r-AC) assay; settings: for IC50: read-out: r-AC UPLC/MS assay IC50
T3 construct: V5 (C); His (C); made in house; host or cells: HEK293 cells transfected with pEF6-rAC-V5/His, G418 selected; soluble lysosomal fraction
T3 sequence (Q6P7S1 21-394): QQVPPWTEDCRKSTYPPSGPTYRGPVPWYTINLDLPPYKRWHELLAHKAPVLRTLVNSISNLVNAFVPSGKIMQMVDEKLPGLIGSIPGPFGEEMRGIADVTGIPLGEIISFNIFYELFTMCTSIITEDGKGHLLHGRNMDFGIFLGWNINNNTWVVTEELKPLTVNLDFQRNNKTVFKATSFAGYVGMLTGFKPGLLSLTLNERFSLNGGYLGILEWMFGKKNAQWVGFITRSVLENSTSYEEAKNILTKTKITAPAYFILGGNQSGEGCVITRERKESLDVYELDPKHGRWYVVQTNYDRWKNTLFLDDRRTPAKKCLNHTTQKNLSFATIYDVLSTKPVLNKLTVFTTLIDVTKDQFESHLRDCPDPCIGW
Experimental: The selectivity of selected compounds versus Acid Ceramidase (AC) was determined.
Rat AC (r-AC) was cloned from a brain cDNA library using primers based on the sequence obtained from the National Center for Biotechnology Information (NCBI) database: 5′rAC (5′-[…]-3′) (SEQ ID NO:1) and 3′rAC (5′-[…]-3′) (SEQ ID NO:2). The PCR (High Fidelity PCR Master, Roche) product was subcloned into a pEF6-V5/His vector (Invitrogen) to construct a mammalian expression vector encoding V5/His-tagged rat AC. HEK293 cells were transfected with pEF6-rAC-V5/His using Super-Fect reagent (Qiagen) and screened with G418 (0.3 mg/mL). Cells were suspended in 20 mM Tris HCl (pH 7.5) containing 0.32M sucrose, sonicated and centrifuged at 800×g for 15 minutes at 4° C. The supernatants were centrifuged again at 12,000×g for 30 minutes at 4° C. The pellets were suspended in phosphate-buffered saline (PBS) and subjected to 2 freeze-thaw cycles at −80° C. The suspensions were centrifuged at 105,000×g for 1 hour at 4° C. The supernatants containing recombinant AC were kept at −80° C. until use. Protein concentration was measured using the bicinchoninic acid (BCA) assay (Pierce). Recombinant rat AC (50 μg) was preincubated with inhibitors (final DMSO concentration 1%) in assay buffer (100 mM sodium phosphate, 0.1% Nonidet P-40, 150 mM NaCl, 3 mM DTT, 100 mM sodium citrate, pH 4.5) for 30 minutes at 37° C. Reactions were started by the addition of 100 μM N-lauroyl ceramide (Nu-Chek Prep, Elysian, Minn.) and carried on for 30 minutes at 37° C. Reactions were stopped by addition of a mixture of chloroform/methanol (2:1, vol/vol) containing 1 nmol of heptadecanoic acid (HDA; NuChek Prep). The organic phases were collected, dried under N2, and analyzed by LC-MS in the negative-ion mode using […] (HDA) as internal standard (m/z=199 for lauric acid, m/z=269 for HDA). […]. The column temperature was 50° C. Electrospray ionization (ESI) was in the negative mode, capillary voltage as 4 kV, and fragmentor voltage was 100 V. N2 was used as drying gas at a flow rate of 13 L/min and a temperature of 350° C. Nebulizer pressure was set at 60 psi. We monitored [M-H]− in the selected-ion monitoring (SIM) mode using HDA as internal standard. Calibration curves were generated using commercial lauric acid (Nu-Chek Prep; m/z=199).

[4] = @ 10 μM, read-out: r-AC UPLC/MS assay % inhib.

IC50 [1] [nM] | IC50 [2] [nM] | SMILES | also measured
16 | 39 | O=C(N[C@H]1CNC1=O)OCc1ccc(C2CC3CCC2C3)cc1 (mixture of isomers) [Example 56, [4-(1R,2R,4S)- and (1S,2S,4R)-Norbornan-2-yl-phenyl)]-methyl-N-[(3S)-2-oxoazetidin-3-yl]-carbamate] | 
700 | 323 | CCCCC1CCC(OC(=O)N[C@H]2CNC2=O)CC1 (mixture of isomers) [Example 61, (1s,4R) and (1r,4S)-(4-Butylcyclohexyl)-N-[(3S)-2-oxoazetidin-3-yl]-carbamate] | 
700 |  | CCCCCCCOC(=O)N[C@H]1CNC1=O [Example 1, Heptyl-N-[(3S)-2-oxoazetidin-3-yl]-carbamate] | inhibition at 1 µM ([3]; @ 1 μM, read-out: r-AC UPLC/MS assay % inhib.): 37%
180 | 78 | CCCCC/C=C/CCOC(=O)N[C@H]1CNC1=O [Example 9, [(E)-Non-3-enyl]-N-[(3S)-2-oxoazetidin-3-yl]-carbamate] | 
250 | 76 | CCCCC/C=C\CCOC(=O)N[C@H]1CNC1=O [Example 10, [(Z)-Non-3-enyl]-N-[(3S)-2-oxoazetidin-3-yl]-carbamate] | 
2430 | 930 | O=C(N[C@H]1CNC1=O)OCCCCc1ccccc1 [Example 13, 4-Phenylbutyl-N-[(3S)-2-oxoazetidin-3-yl]-carbamate] | 
310 |  | O=C(N[C@H]1CNC1=O)OCc1ccc(-c2ccccc2)cc1 [Example 17, (4-Phenylphenyl)-methyl-N-[(3S)-2-oxoazetidin-3-yl]-carbamate] | IC50 [3]: 20.1 µM
220 | 97 | O=C(N[C@H]1CNC1=O)OCCCC1CCCC1 [Example 21, 3-Cyclopentylpropyl-N-[(3S)-2-oxoazetidin-3-yl]-carbamate] | 
790 | 573 | COc1ccc(CCCCOC(=O)N[C@H]2CNC2=O)cc1 [Example 22, 4-(4-Methoxyphenyl)-butyl-N-[(3S)-2-oxoazetidin-3-yl]-carbamate] | 
40 | 17 | CCCCCCCCCOC(=O)N[C@H]1CNC1=O [Example 25, Nonyl-N-[(3S)-2-oxoazetidin-3-yl]-carbamate] | 
55 | 25 | CCCCCCCCCCOC(=O)N[C@H]1CNC1=O [Example 30, Decyl-N-[(3S)-2-oxoazetidin-3-yl]-carbamate] | 
28 |  | O=C(N[C@H]1CNC1=O)OCc1ccc(C2CCCCC2)cc1 [Example 31, (4-Cyclohexylphenyl)-methyl-N-[(3S)-2-oxoazetidin-3-yl]-carbamate] | IC50 [3]: 21.7 µM
300 | 230 | O=C(N[C@H]1CNC1=O)OCc1ccc(Cc2ccccc2)cc1 [Example 34, (4-Benzylphenyl)-methyl-N-[(3S)-2-oxoazetidin-3-yl]-carbamate] | 
420 | 639 | O=C(N[C@H]1CNC1=O)OCc1ccc(C(=O)c2ccccc2)cc1 [Example 52, (4-Benzoylphenyl)-methyl-N-[(3S)-2-oxoazetidin-3-yl]-carbamate] | 
2700 | 2100 | O=C(N[C@H]1CNC1=O)OCc1ccc(C23CC4CC(CC(C4)C2)C3)cc1 [Example 58, [4-(1-Adamantyl)-phenyl]-methyl-N-[(3S)-2-oxoazetidin-3-yl]-carbamate] | 
50 |  | C[C@@H]1NC(=O)[C@H]1NC(=O)OCCCCC1CCCCC1 [Example 72, 4-Cyclohexylbutyl-N-[(2S,3S)-2-methyl-4-oxo-azetidin-3-yl]-carbamate] | inhibition at 10 µM [3, 4]: 20%
87000 |  | C[C@H]1NC(=O)[C@H]1NC(=O)OCCCCC1CCCCC1 [Example 76, 4-Cyclohexylbutyl-N-[(2R,3S)-2-methyl-4-oxo-azetidin-3-yl]-carbamate] | inhibition at 10 µM [3, 4]: 5%

SMILES | IC50 [1] [nM] | IC50 [2] [nM] | also measured
CCCCOc1ccc(COC(=O)N[C@H]2CNC2=O)cc1 [Example 63, (4-Butoxyphenyl)-methyl-N-[(3S)-2-oxoazetidin-3-yl]-carbamate] | 240 | 104 | 
C[C@@H]1NC(=O)[C@H]1NC(=O)OCc1ccc(-c2ccccc2)cc1 [Example 73, (4-Phenylphenyl)-methyl-N-[(2S,3S)-2-methyl-4-oxo-azetidin-3-yl]-carbamate] | 900 |  | inhibition at 10 µM ([3]; read-out: r-AC UPLC/MS assay % inhib.): 20%
